Experimental data taken from patent US5140014A (Abbott Laboratories, priority 1989, dated 1992).
Converted amounts (≈) assume the structure as drawn. Read-outs that look alike come from different tables or passages of the source.

Key:
Experiment in all cases: in vitro antibacterial activity, agar dilution method (MIC)
Format in all cases: cell-based
Acinetobacter Sp = details: strain CMX 669, BHI agar, 20-24 hours
Outline: (§1)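 Agar dilution in BHI agar, usually 12 two-fold dilutions from a 2,000 ug/mL stock. About 10^4 organisms from overnight BHI broth cultures (diluted 1:100) were spotted and incubated at 35-37 °C for 20-24 h. MIC was the lowest concentration giving no growth, slight haze or sparse colonies versus growth control.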

Enterobacter Aerogenes = details: BHI agar, 20-24 hours
Outline: as §1

Enterococcus Faecium = details: BHI agar, 20-24 hours
Outline: as §1

Haemophilus Influenzae = details: BHI agar, 20-24 hours
Outline: as §1

Klebsiella Pneumoniae = details: BHI agar, 20-24 hours
Outline: as §1

Micrococcus Luteus = details: BHI agar, 20-24 hours
Outline: (§2)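 Agar dilution in Brain Heart Infusion agar, usually 12 two-fold dilutions from a 2,000 ug/mL stock. Overnight BHI broth cultures were diluted 1:100 (1:10 for slow growers such as Streptococcus), and ~10^4 organisms were spotted per plate. MIC read after 20-24 h at 35°-37° C as lowest concentration giving no growth, slight haze or sparse colonies versus growth control.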

Providencia Stuartii = details: strain CMX 640, BHI agar, 20-24 hours
Outline: as §1

Pseudomonas Aeruginosa = details: BHI agar, 20-24 hours
Outline: as §1

Staphylococcus Aureus = details: BHI agar, 20-24 hours
Outline: as §1

[1] = test system: Staphylococcus Epidermidis; details: strain 3519, BHI agar, 20-24 hours
Outline: as §1

Streptococcus Agalactiae = details: strain CMX 508, BHI agar, 20-24 hours
Outline: as §1

Streptococcus Bovis = details: strain A5169, BHI agar, 20-24 hours
Outline: as §1

Streptococcus Pyogenes = details: BHI agar, 20-24 hours
Outline: as §2

Escherichia Coli = details: BHI agar, 20-24 hours
Outline: (§3)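 Agar dilution on BHI agar, typically 12 two-fold dilutions prepared from a 2,000 ug/mL stock solution. Plates were spot-inoculated with about 10^4 organisms from overnight BHI broth cultures, then incubated 20-24 h at 35°-37° C. MIC was the lowest concentration giving no growth, a slight haze or sparse isolated colonies compared with the growth control.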

Pseudomonas Cepacia = details: strain 296I, BHI agar, 20-24 hours
Outline: as §3

[2] = Haemophilus influenzae, strain 588A, read-out: MIC

`CCC1OC(=O)CC(O)C(C)C(OC2OC(C)C(O)C(N(C)C)C2O)C(CC=O)CC(C)C(N(C)C)CCC(C)=CC1COC(C)=O` (stereo not drawn) [Example 7, [9S]-23-O-Acetyl-9-deoxo-10,11-dihydro-9-N,N-dimethylamino-5-O-mycaminosyl-tylonide] was tested, and the MIC (Acinetobacter Sp) was 50 µg/mL (≈ 74.5 µM), the MIC (Enterobacter Aerogenes; strain ATCC 13048) was > 100 µg/mL and the MIC (Enterococcus Faecium; strain ATCC 8043) was 1.56 µg/mL (≈ 2.33 µM). For the same molecule, the MIC (Haemophilus Influenzae; [2]) was 4 µg/mL (≈ 5.96 µM), the MIC (Haemophilus Influenzae; strain 503B) was 2 µg/mL (≈ 2.98 µM) and the MIC (Haemophilus Influenzae; strain 519A) was 1 µg/mL (≈ 1.49 µM). The MIC (Haemophilus Influenzae; strain 566A) was 4 µg/mL (≈ 5.96 µM), the MIC (Haemophilus Influenzae; strain 747C) was 4 µg/mL (≈ 5.96 µM) and the MIC (Haemophilus Influenzae; strain 751) was 16 µg/mL (≈ 23.8 µM). It also gave an MIC (Haemophilus Influenzae; strain 1177) of 0.5 µg/mL (≈ 0.745 µM), an MIC (Haemophilus Influenzae; strain 1435) of 4 µg/mL (≈ 5.96 µM) and an MIC (Haemophilus Influenzae; strain ATCC 9795) of 4 µg/mL (≈ 5.96 µM). The MIC (Haemophilus Influenzae; strain ATCC 10211) was 4 µg/mL (≈ 5.96 µM), the MIC (Haemophilus Influenzae; strain ATCC 19418) was 4 µg/mL (≈ 5.96 µM) and the MIC (Haemophilus Influenzae; strain ATCC 43095) was 2 µg/mL (≈ 2.98 µM). It also gave an MIC (Haemophilus Influenzae; strain DILL AMP R) of 4 µg/mL (≈ 5.96 µM), an MIC (Haemophilus Influenzae; strain SOL AMP R) of 4 µg/mL (≈ 5.96 µM) and an MIC (Haemophilus Influenzae; strain SPK AMP R) of 4 µg/mL (≈ 5.96 µM). It also gave an MIC (Klebsiella Pneumoniae; strain ATCC 8045) of 100 µg/mL (≈ 149 µM), an MIC (Micrococcus Luteus; strain ATCC 4698) of 1.56 µg/mL (≈ 2.33 µM) and an MIC (Micrococcus Luteus; strain ATCC 9341) of 0.78 µg/mL (≈ 1.16 µM). For the same molecule, the MIC (Providencia Stuartii) was > 100 µg/mL, the MIC (Pseudomonas Aeruginosa; strain A5007) was > 100 µg/mL and the MIC (Pseudomonas Aeruginosa; strain BMH10) was 100 µg/mL (≈ 149 µM). For the same molecule, the MIC (Pseudomonas Aeruginosa; strain K799/61) was 3.1 µg/mL (≈ 4.62 µM), the MIC (Pseudomonas Aeruginosa; strain K799/WT) was > 100 µg/mL and the MIC (Staphylococcus Aureus; strain 45) was 3.1 µg/mL (≈ 4.62 µM). It also gave an MIC (Staphylococcus Aureus; strain 45 RAR2) of 6.2 µg/mL (≈ 9.24 µM), an MIC (Staphylococcus Aureus; strain 642A) of 6.2 µg/mL (≈ 9.24 µM) and an MIC (Staphylococcus Aureus; strain A5177) of 6.2 µg/mL (≈ 9.24 µM). For the same molecule, the MIC (Staphylococcus Aureus; strain ATCC 6538P) was 6.2 µg/mL (≈ 9.24 µM), the MIC (Staphylococcus Aureus; strain CMX 553) was 6.2 µg/mL (≈ 9.24 µM) and the MIC (Staphylococcus Aureus; strain NCTC 10649) was 6.2 µg/mL (≈ 9.24 µM). For the same molecule, the MIC [1] was 1.56 µg/mL (≈ 2.33 µM), the MIC (Streptococcus Agalactiae) was 0.39 µg/mL (≈ 0.581 µM) and the MIC (Streptococcus Bovis) was 0.1 µg/mL (≈ 0.149 µM). The MIC (Streptococcus Pyogenes; strain 930 CONST) was > 100 µg/mL, the MIC (Streptococcus Pyogenes; strain 2548 INDUC) was 1.56 µg/mL (≈ 2.33 µM) and the MIC (Streptococcus Pyogenes; strain EES61) was 0.78 µg/mL (≈ 1.16 µM). The MIC (Escherichia Coli; strain DC-2) was 50 µg/mL (≈ 74.5 µM), the MIC (Escherichia Coli; strain H560) was 12.5 µg/mL (≈ 18.6 µM) and the MIC (Escherichia Coli; strain JUHL) was 100 µg/mL (≈ 149 µM). For the same molecule, the MIC (Escherichia Coli; strain KNK 437) was 50 µg/mL (≈ 74.5 µM), the MIC (Escherichia Coli; strain SS) was 0.78 µg/mL (≈ 1.16 µM) and the MIC (Pseudomonas Cepacia) was > 100 µg/mL.
Molecule `CCC1OC(=O)CC(O)C(C)C(OC2OC(C)CC(N(C)C)C2O)C(CC=O)CC(C)C(N(C)C)CCC(C)=CC1COC(C)=O` (stereo not drawn) [Example 8, [9S]-23-O-Acetyl-9-deoxo-4'-deoxy-10,11-dihydro-9-N,N-dimethylamino-5-O-mycaminosyl-tylonide] has an MIC (Acinetobacter Sp; Acinetobacter, read-out: MIC) of 12.5 µg/mL (≈ 19.1 µM), an MIC (Enterobacter Aerogenes; Klebsiella aerogenes, ATCC13048, strain ATCC 13048, read-out: MIC) of 50 µg/mL (≈ 76.3 µM) and an MIC (Enterococcus Faecium; Enterococcus faecium, ATCC8043, strain ATCC 8043, read-out: MIC) of 1.56 µg/mL (≈ 2.38 µM). For the same molecule, the MIC (Haemophilus Influenzae; Haemophilus influenzae, ATCC9795, strain ATCC 9795, read-out: MIC) was 2 µg/mL (≈ 3.05 µM), the MIC (Haemophilus Influenzae; Haemophilus influenzae, ATCC10211, strain ATCC 10211, read-out: MIC) was 2 µg/mL (≈ 3.05 µM) and the MIC (Haemophilus Influenzae; Haemophilus influenzae, ATCC19418, strain ATCC 19418, read-out: MIC) was 2 µg/mL (≈ 3.05 µM). It also gave an MIC (Haemophilus Influenzae; Haemophilus influenzae, ATCC43095, strain ATCC 43095, read-out: MIC) of 2 µg/mL (≈ 3.05 µM), an MIC (Haemophilus Influenzae; Haemophilus influenzae, strain 503B, read-out: MIC) of 2 µg/mL (≈ 3.05 µM) and an MIC (Haemophilus Influenzae; Haemophilus influenzae, strain 504, read-out: MIC) of 2 µg/mL (≈ 3.05 µM). For the same molecule, the MIC (Haemophilus Influenzae; Haemophilus influenzae, strain 519A) was 1 µg/mL (≈ 1.53 µM), the MIC (Haemophilus Influenzae; Haemophilus influenzae, strain 566A, read-out: MIC) was 2 µg/mL (≈ 3.05 µM) and the MIC (Haemophilus Influenzae; [2]) was 2 µg/mL (≈ 3.05 µM). For the same molecule, the MIC (Haemophilus Influenzae; Haemophilus influenzae, strain 632A, read-out: MIC) was 2 µg/mL (≈ 3.05 µM), the MIC (Haemophilus Influenzae; Haemophilus influenzae, strain 667A, read-out: MIC) was 2 µg/mL (≈ 3.05 µM) and the MIC (Haemophilus Influenzae; Haemophilus influenzae, strain 747C, read-out: MIC) was 2 µg/mL (≈ 3.05 µM). The MIC (Haemophilus Influenzae; Haemophilus influenzae, strain 751) was 8 µg/mL (≈ 12.2 µM), the MIC (Haemophilus Influenzae; Haemophilus influenzae, strain 1177, read-out: MIC) was 0.25 µg/mL (≈ 0.382 µM) and the MIC (Haemophilus Influenzae; Haemophilus influenzae, strain 1435) was 1 µg/mL (≈ 1.53 µM). For the same molecule, the MIC (Haemophilus Influenzae; Haemophilus influenzae, strain DILL AMP R, read-out: MIC) was 2 µg/mL (≈ 3.05 µM), the MIC (Haemophilus Influenzae; Haemophilus influenzae, strain SOL AMP R, read-out: MIC) was 2 µg/mL (≈ 3.05 µM) and the MIC (Haemophilus Influenzae; Haemophilus influenzae, strain SPK AMP R, read-out: MIC) was 2 µg/mL (≈ 3.05 µM). The MIC (Klebsiella Pneumoniae; Klebsiella pneumoniae, ATCC8045, strain ATCC 8045, read-out: MIC) was 50 µg/mL (≈ 76.3 µM), the MIC (Micrococcus Luteus; Micrococcus luteus, ATCC4698, strain ATCC 4698, read-out: MIC) was 0.78 µg/mL (≈ 1.19 µM) and the MIC (Micrococcus Luteus; Micrococcus luteus, ATCC9341, strain ATCC 9341, read-out: MIC) was 0.2 µg/mL (≈ 0.305 µM). The MIC (Providencia Stuartii; Providencia stuartii, read-out: MIC) was > 100 µg/mL, the MIC (Pseudomonas Aeruginosa; Pseudomonas aeruginosa, strain A5007, read-out: MIC) was > 100 µg/mL and the MIC (Pseudomonas Aeruginosa; Pseudomonas aeruginosa, strain BMH10, read-out: MIC) was > 100 µg/mL. The MIC (Pseudomonas Aeruginosa; Pseudomonas aeruginosa, strain K799/61, read-out: MIC) was 6.2 µg/mL (≈ 9.47 µM), the MIC (Pseudomonas Aeruginosa; Pseudomonas aeruginosa, strain K799/WT, read-out: MIC) was > 100 µg/mL and the MIC (Staphylococcus Aureus; Staphylococcus aureus, ATCC6538P, strain ATCC 6538P, read-out: MIC) was 3.1 µg/mL (≈ 4.73 µM). The MIC (Staphylococcus Aureus; Staphylococcus aureus, NCTC10649, strain NCTC 10649, read-out: MIC) was 0.78 µg/mL (≈ 1.19 µM), the MIC (Staphylococcus Aureus; Staphylococcus aureus, strain 45, read-out: MIC) was 3.1 µg/mL (≈ 4.73 µM) and the MIC (Staphylococcus Aureus; Staphylococcus aureus, strain 45 RAR2, read-out: MIC) was 3.1 µg/mL (≈ 4.73 µM). The MIC (Staphylococcus Aureus; Staphylococcus aureus, strain 642A, read-out: MIC) was 3.1 µg/mL (≈ 4.73 µM), the MIC (Staphylococcus Aureus; Staphylococcus aureus, strain A5177, read-out: MIC) was 1.56 µg/mL (≈ 2.38 µM) and the MIC (Staphylococcus Aureus; Staphylococcus aureus, strain CMX 553, read-out: MIC) was 3.1 µg/mL (≈ 4.73 µM). It also gave an MIC ([1]; Staphylococcus epidermidis, read-out: MIC) of 1.56 µg/mL (≈ 2.38 µM), an MIC (Streptococcus Agalactiae; Streptococcus agalactiae, read-out: MIC) of 0.39 µg/mL (≈ 0.596 µM) and an MIC (Streptococcus Bovis; Streptococcus equinus) of 0.1 µg/mL (≈ 0.153 µM). It also gave an MIC (Streptococcus Pyogenes; Streptococcus pyogenes, strain 930 CONST, read-out: MIC) of 50 µg/mL (≈ 76.3 µM), an MIC (Streptococcus Pyogenes; Streptococcus pyogenes, strain 2548 INDUC, read-out: MIC) of 1.56 µg/mL (≈ 2.38 µM) and an MIC (Streptococcus Pyogenes; Streptococcus pyogenes, strain EES61, read-out: MIC) of 0.78 µg/mL (≈ 1.19 µM). It also gave an MIC (Escherichia Coli; Escherichia coli, strain DC-2, read-out: MIC) of 25 µg/mL (≈ 38.2 µM), an MIC (Escherichia Coli; Escherichia coli, strain H560, read-out: MIC) of 6.2 µg/mL (≈ 9.47 µM) and an MIC (Escherichia Coli; Escherichia coli, strain JUHL, read-out: MIC) of 50 µg/mL (≈ 76.3 µM). The MIC (Escherichia Coli; Escherichia coli, strain KNK 437, read-out: MIC) was 25 µg/mL (≈ 38.2 µM), the MIC (Escherichia Coli; Escherichia coli, strain SS, read-out: MIC) was 0.2 µg/mL (≈ 0.305 µM) and the MIC (Pseudomonas Cepacia; Burkholderia cepacia, read-out: MIC) was > 100 µg/mL.
